In US10597388B2, “Pyridazinone herbicides” (FMC CORPORATION, priority 2014, dated 2020):

Columns and labels:
Format in all cases: in vivo
kochia (Kochia scoparia) = test: Test A greenhouse herbicide test, pre- and postemergence
Method in brief: (§1)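 Visual injury ratings, 0 (no effect) to 100 (complete control), versus untreated plants after roughly 10 d in a greenhouse. Compounds, formulated in a surfactant-containing non-phytotoxic solvent, were sprayed on loam–sand soil after sowing (pre) or on one- to two-leaf plants 2–10 cm tall (post).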

[1] = system: barnyardgrass (Echinochloa crus-galli); test: as above
Method in brief: as §1

[2] = system: waterhemp (common waterhemp, Amaranthus rudis); test: Test C greenhouse herbicide test, pre- and postemergence
Method in brief: (§2)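 Greenhouse pots; pre-em on seeded loam:sand blend, post-em on 2–18 cm plants (1–4 leaf) in sphagnum peat/vermiculite medium. Formulation: non-phytotoxic solvent + surfactant. Read-out: visual % control (0–100) vs controls at 13–15 d.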

[3] = system: lambsquarters (Chenopodium album); test: as above
Method in brief: as §2

[4] = system: wheat (winter wheat, Triticum aestivum); test: as above
Method in brief: as §2

corn (Zea mays) = test: as above
Method in brief: as §2

[5] = system: crabgrass, large (large crabgrass, Digitaria sanguinalis); test: as above
Method in brief: as §2

[6] = system: oilseed rape (Brassica napus); test: as above
Method in brief: as §2

[7] = system: johnsongrass (Sorghum halepense); test: as above
Method in brief: as §2

[8] = system: foxtail, giant (giant foxtail, Setaria faberii); test: as above
Method in brief: as §2

[9] = system: morningglory (Ipomoea coccinea); test: as above
Method in brief: as §2

[10] = Postemergence, 125 g ai/ha, 0 to 100 scale where 0 is no effect and 100 is complete control
[11] = Preemergence, 125 g ai/ha, 0 to 100 scale where 0 is no effect and 100 is complete control
[12] = Preemergence, 500 g ai/ha, 0 to 100 scale where 0 is no effect and 100 is complete control
[13] = Postemergence, 500 g ai/ha, 0 to 100 scale, 0 is no effect, 100 is complete control
[14] = Postemergence, 125 g ai/ha, scale 0 to 100, 0 is no effect, 100 is complete control
[15] = Postemergence, 250 g ai/ha, scale 0 to 100, 0 no effect, 100 complete control, 13 to 15 d
[16] = Preemergence, 31 g ai/ha, scale 0 to 100, 0 is no effect, 100 is complete control
[17] = Preemergence, 62 g ai/ha, scale 0 to 100, 0 is no effect, 100 is complete control
[18] = Preemergence, 125 g ai/ha, scale 0 to 100, 0 is no effect, 100 is complete control
[19] = Preemergence, 250 g ai/ha, scale 0 to 100, 0 no effect, 100 complete control
[20] = postemergence, 62 g ai/ha, scale 0 to 100, 0 no effect, 100 complete control
[21] = Postemergence, 31 g ai/ha, 0 to 100 scale (0 no effect, 100 complete control)

Which results are given for `COC(=O)Oc1cnn(C)c(=O)c1-c1c(C)sc2ccccc12` [Compound 97]?
Plant response rating, Kochia (kochia (Kochia scoparia); [10]): 90; Plant response rating, Kochia (kochia (Kochia scoparia); Postemergence, 500 g ai/ha, visual rating after approx. 10 d, 0 to 100 scale (0 no effect, 100 complete control)): 100; Kochia plant response rating (kochia (Kochia scoparia); [11]): 80; Plant response rating, Kochia (kochia (Kochia scoparia); [12]): 100; Plant response rating, Barnyardgrass [1, 10]: 30; Barnyardgrass plant response rating [1, 13]: 90; Barnyardgrass plant response rating [1, 11]: 20; Plant response rating, Barnyardgrass [1, 12]: 100; Plant response rating, Waterhemp [2, 14]: 5; Plant response rating, Waterhemp [2, 15]: 10; Plant response rating, Waterhemp [2, 16]: 0; Plant response rating, Waterhemp [2, 17]: 10; Plant response rating, Waterhemp [2, 18]: 10; Waterhemp plant response rating [2, 19]: 20; Waterhemp plant response rating [2, 20]: 5; Plant response rating, Lambsquarters [3, 14]: 50; Plant response rating, Lambsquarters [3, 15]: 60; Plant response rating, Lambsquarters [3, 16]: 0; Plant response rating, Lambsquarters [3, 17]: 0; Plant response rating, Lambsquarters [3, 18]: 20; Lambsquarters plant response rating [3, 19]: 25; Lambsquarters plant response rating [3, 20]: 20; Plant response rating, Wheat [4, 14]: 0; Plant response rating, Wheat [4, 15]: 0; Plant response rating, Wheat [4, 16]: 0; Plant response rating, Wheat [4, 17]: 0; Plant response rating, Wheat [4, 18]: 0; Wheat plant response rating [4, 19]: 0; Wheat plant response rating [4, 20]: 0; Corn plant response rating (corn (Zea mays); [21]): 0; Plant response rating, Corn (corn (Zea mays); [14]): 0; Plant response rating, Corn (corn (Zea mays); [15]): 5; Plant response rating, Corn (corn (Zea mays); [16]): 5; Plant response rating, Corn (corn (Zea mays); [17]): 0; Plant response rating, Corn (corn (Zea mays); [18]): 0; Corn plant response rating (corn (Zea mays); [19]): 0; Corn plant response rating (corn (Zea mays); [20]): 0; Plant response rating, Crabgrass, Large [5, 14]: 10; Plant response rating, Crabgrass, Large [5, 15]: 25; Plant response rating, Crabgrass, Large [5, 16]: 0; Plant response rating, Crabgrass, Large [5, 17]: 0; Plant response rating, Crabgrass, Large [5, 18]: 0; Crabgrass, Large plant response rating [5, 19]: 60; Crabgrass, Large plant response rating [5, 20]: 5; Plant response rating, Oilseed Rape [6, 14]: 0; Plant response rating, Oilseed Rape [6, 15]: 35; Plant response rating, Oilseed Rape [6, 16]: 0; Plant response rating, Oilseed Rape [6, 17]: 0; Plant response rating, Oilseed Rape [6, 18]: 0; Oilseed Rape plant response rating [6, 19]: 0; Oilseed Rape plant response rating [6, 20]: 0; Plant response rating, Johnsongrass [7, 14]: 0; Plant response rating, Johnsongrass [7, 15]: 5; Plant response rating, Johnsongrass [7, 16]: 0; Plant response rating, Johnsongrass [7, 17]: 0; Plant response rating, Johnsongrass [7, 18]: 0; Johnsongrass plant response rating [7, 19]: 0; Johnsongrass plant response rating [7, 20]: 0; Plant response rating, Foxtail, Giant [8, 14]: 5; Plant response rating, Foxtail, Giant [8, 15]: 5; Plant response rating, Foxtail, Giant [8, 16]: 0; Plant response rating, Foxtail, Giant [8, 17]: 5; Plant response rating, Foxtail, Giant [8, 18]: 5; Foxtail, Giant plant response rating [8, 19]: 55; Foxtail, Giant plant response rating [8, 20]: 5; Plant response rating, Morningglory [9, 14]: 30; Plant response rating, Morningglory [9, 15]: 30; Plant response rating, Morningglory [9, 16]: 25; Plant response rating, Morningglory [9, 17]: 30; Plant response rating, Morningglory [9, 18]: 20; Morningglory plant response rating [9, 19]: 30; Morningglory plant response rating [9, 20]: 40

Which results are given for `Cc1sc2ccccc2c1-c1c(O)c(Cl)nn(C)c1=O` [Compound 89]?
Plant response rating, Kochia (kochia (Kochia scoparia); [10]): 80; Kochia plant response rating (kochia (Kochia scoparia); [13]): 90; Kochia plant response rating (kochia (Kochia scoparia); [11]): 70; Plant response rating, Kochia (kochia (Kochia scoparia); [12]): 90; Plant response rating, Barnyardgrass [1, 10]: 40; Barnyardgrass plant response rating [1, 13]: 80; Barnyardgrass plant response rating [1, 11]: 50; Plant response rating, Barnyardgrass [1, 12]: 60; Plant response rating, Waterhemp [2, 14]: 50; Plant response rating, Waterhemp [2, 15]: 50; Plant response rating, Waterhemp [2, 16]: 75; Plant response rating, Waterhemp [2, 17]: 50; Plant response rating, Waterhemp [2, 18]: 40; Waterhemp plant response rating [2, 19]: 75; Waterhemp plant response rating [2, 20]: 40; Plant response rating, Lambsquarters [3, 14]: 100; Plant response rating, Lambsquarters [3, 15]: 100; Plant response rating, Lambsquarters [3, 16]: 40; Plant response rating, Lambsquarters [3, 17]: 85; Plant response rating, Lambsquarters [3, 18]: 98; Lambsquarters plant response rating [3, 19]: 90; Lambsquarters plant response rating [3, 20]: 90; Plant response rating, Wheat [4, 14]: 0; Plant response rating, Wheat [4, 15]: 0; Plant response rating, Wheat [4, 16]: 0; Plant response rating, Wheat [4, 17]: 0; Plant response rating, Wheat [4, 18]: 0; Wheat plant response rating [4, 19]: 0; Wheat plant response rating [4, 20]: 0; Corn plant response rating (corn (Zea mays); [21]): 5; Plant response rating, Corn (corn (Zea mays); [14]): 10; Plant response rating, Corn (corn (Zea mays); [15]): 5; Plant response rating, Corn (corn (Zea mays); [16]): 0; Plant response rating, Corn (corn (Zea mays); [17]): 0; Plant response rating, Corn (corn (Zea mays); [18]): 0; Corn plant response rating (corn (Zea mays); [19]): 0; Corn plant response rating (corn (Zea mays); [20]): 5; Plant response rating, Crabgrass, Large [5, 14]: 5; Plant response rating, Crabgrass, Large [5, 15]: 10; Plant response rating, Crabgrass, Large [5, 16]: 20; Plant response rating, Crabgrass, Large [5, 17]: 0; Plant response rating, Crabgrass, Large [5, 18]: 25; Crabgrass, Large plant response rating [5, 19]: 75; Crabgrass, Large plant response rating [5, 20]: 5; Plant response rating, Oilseed Rape [6, 14]: 0; Plant response rating, Oilseed Rape [6, 15]: 0; Plant response rating, Oilseed Rape [6, 16]: 0; Plant response rating, Oilseed Rape [6, 17]: 0; Plant response rating, Oilseed Rape [6, 18]: 30; Oilseed Rape plant response rating [6, 19]: 90; Oilseed Rape plant response rating [6, 20]: 0; Plant response rating, Johnsongrass [7, 14]: 0; Plant response rating, Johnsongrass [7, 15]: 5; Plant response rating, Johnsongrass [7, 16]: 0; Plant response rating, Johnsongrass [7, 17]: 75; Plant response rating, Johnsongrass [7, 18]: 0; Johnsongrass plant response rating [7, 19]: 5; Johnsongrass plant response rating [7, 20]: 0; Plant response rating, Foxtail, Giant [8, 14]: 20; Plant response rating, Foxtail, Giant [8, 15]: 30; Plant response rating, Foxtail, Giant [8, 16]: 10; Plant response rating, Foxtail, Giant [8, 17]: 60; Plant response rating, Foxtail, Giant [8, 18]: 65; Foxtail, Giant plant response rating [8, 19]: 75; Foxtail, Giant plant response rating [8, 20]: 10; Plant response rating, Morningglory [9, 14]: 98; Plant response rating, Morningglory [9, 15]: 98; Plant response rating, Morningglory [9, 16]: 80; Plant response rating, Morningglory [9, 17]: 85; Plant response rating, Morningglory [9, 18]: 85; Morningglory plant response rating [9, 19]: 90; Morningglory plant response rating [9, 20]: 95
